From US20030073850A1, “4-Imidazole derivatives of benzyl and restricted benzyl sulfonamides, sulfamides, ureas, carbamates, and amides and their use” (priority 1998, published 2003)
Structures can show the parent of a compound that is named as a salt. Where two headings read alike, the source gives them in different places.

Tests used:
[1] = test system: anesthetized dogs; assay: Mean arterial pressure (MAP) in anesthetized dogs; format: in vivo, dog; settings: iv dose causing a maximum increase in MAP of 20 mm Hg, anesthetized female Beagle dogs
Description: (§1) Female Beagle dogs (Marshall Farms, North Rose, N.Y.) greater that 2 years of age and weighing between 12 and 15 kg were used in these studies. At least 2 weeks prior to any agonist dosing, dogs were instrumented for the chronic measurement of arterial blood pressure by implanting a telemetry transducer/transmitter (TA11PA-C40, Data Sciences International, St. Paul, Minn.) into a carotid artery.
(§2) On the test day, dogs fasted since the previous afternoon were pre-anesthetized with thiopental sodium 15 mg/kg i.v. (Pentothal™, Abbott) and intubated. Anesthesia was maintained by allowing the dog to spontaneously breathe a mixture of isoflurane (2.5 to 3 volume %) and oxygen delivered by a Narkomed Standard anesthesia system (North American Drager, Telford, Pa.). An Abbocath-T™ i.v. catheter (18-G, Abbott) was inserted into the cephalic vein for the administration of agonists. A telemetry receiver (RA1310, DataSciences) was placed under the head of each dog and was interfaced to a computerized data acquisition system (Modular Instruments Inc.(MI2), Malvern, Pa.) which allowed for the continuous calibrated recording of arterial blood pressure which was electronically filtered to determine its mean value (MAP).
(§3) From the resulting dose response curve, an ED5 value, for the dose causing a maximum increase in IUP of 5 mm Hg, could be estimated. An ED20 value for the dose causing a maximum increase in MAP of 20 mm Hg could also be estimated. A selectivity ratio of MAP ED20 vs. IUP ED, was calculated.

[2] = molecular target: T1, α1b (hamster receptor expressed in mouse fibroblasts) (Mesocricetus auratus, UniProt P18841); assay: Radioligand binding, [3H]-prazosin, α1b
T1 construct: expressed in transfected cells; host or cells: mouse fibroblasts
T1 sequence (P18841 1-515): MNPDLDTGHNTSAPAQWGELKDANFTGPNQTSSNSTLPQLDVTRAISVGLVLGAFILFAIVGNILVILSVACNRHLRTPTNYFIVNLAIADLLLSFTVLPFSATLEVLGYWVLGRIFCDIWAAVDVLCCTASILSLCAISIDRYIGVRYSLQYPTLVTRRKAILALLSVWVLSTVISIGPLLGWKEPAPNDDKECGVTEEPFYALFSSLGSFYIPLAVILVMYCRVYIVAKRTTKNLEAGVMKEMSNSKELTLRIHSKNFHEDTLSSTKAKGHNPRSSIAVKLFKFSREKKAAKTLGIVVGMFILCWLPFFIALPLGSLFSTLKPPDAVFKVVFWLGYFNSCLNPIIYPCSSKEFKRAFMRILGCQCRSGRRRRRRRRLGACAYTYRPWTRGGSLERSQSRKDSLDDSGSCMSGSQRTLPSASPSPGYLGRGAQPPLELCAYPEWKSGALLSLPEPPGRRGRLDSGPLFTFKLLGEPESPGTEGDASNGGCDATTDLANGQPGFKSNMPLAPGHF
Protocol: (§4) For purposes of discussing a, adrenoceptor subtypes, the IUPHAR convention of using lower case letters to define molecular clones and upper case letters to indicate pharmacologically defined adrenoceptors has been followed. Compounds of formula I were evaluated in radioligand binding assays specific for α1A (rat submaxillary gland), α1b (hamster receptor expressed in mouse fibroblasts) and α1d (rat receptor expressed in mouse fibroblasts) using [^3H]-prazosin as the radioligand as described in Knepper, et al. J. Pharm.

[3] = test system: anesthetized dogs; assay: Intraurethral pressure (IUP) in anesthetized dogs; format: in vivo, dog; settings: for ED (5 mm Hg): Canis lupus familiaris, read-out: Mean IUP ED5; for Mean Selectivity Ratio MAP ED20/IUP ED5: anesthetized dogs, iv
Description: as §1, §2
Dogs with chronic telemetry implants anesthetized as described above were placed in dorsal recumbency and a balloon catheter was inserted into the urethral orifice and advanced approximately 15 cm until the tip was well inside the bladder. The balloon was then inflated with 1 ml of room air and the catheter slowly withdrawn until resistance (corresponding to the bladder neck) was evident. The balloon was then deflated and the catheter withdrawn additional 2 cm. The balloon was then reinflated and its catheter port connected to a Gould Statham P23Dd pressure transducer interfaced to a computerized data acquisition system (Modular Instruments, Inc., Malvern, Pa.) for the measurement of the intraurethral pressure. Increasing iv doses of test agonists were administered and the maximum effect of each dose on IUP was recorded. The effect of each dose was allowed to return to baseline before the next dose was given.
as §3

[4] = molecular target: T2, α1d (rat receptor expressed in mouse fibroblasts) (Rattus norvegicus, UniProt P23944); assay: Radioligand binding, [3H]-prazosin, α1d
T2 construct: expressed in transfected cells; host or cells: mouse fibroblasts
T2 sequence (P23944 1-561): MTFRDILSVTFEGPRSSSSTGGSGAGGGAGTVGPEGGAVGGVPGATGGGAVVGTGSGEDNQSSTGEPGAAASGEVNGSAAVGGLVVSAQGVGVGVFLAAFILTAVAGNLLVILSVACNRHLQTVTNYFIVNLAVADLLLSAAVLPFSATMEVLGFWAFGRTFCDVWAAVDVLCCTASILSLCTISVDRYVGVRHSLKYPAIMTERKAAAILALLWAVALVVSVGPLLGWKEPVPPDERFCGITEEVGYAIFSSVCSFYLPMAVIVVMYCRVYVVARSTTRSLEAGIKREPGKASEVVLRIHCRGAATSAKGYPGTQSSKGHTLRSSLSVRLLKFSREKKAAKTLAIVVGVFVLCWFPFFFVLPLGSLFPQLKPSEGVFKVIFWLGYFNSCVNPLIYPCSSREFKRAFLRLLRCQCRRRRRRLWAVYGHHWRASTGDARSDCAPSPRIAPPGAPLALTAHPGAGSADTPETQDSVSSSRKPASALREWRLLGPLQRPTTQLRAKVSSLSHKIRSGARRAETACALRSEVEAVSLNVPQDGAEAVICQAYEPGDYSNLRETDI
Protocol: as §4

[5] = molecular target: T3, α1A (rat submaxillary gland) (Rattus norvegicus, UniProt P43140); assay: Radioligand binding, [3H]-prazosin, α1A
T3 construct: α1A (rat submaxillary gland); from tissue; host or cells: rat submaxillary gland
T3 sequence (P43140 1-466): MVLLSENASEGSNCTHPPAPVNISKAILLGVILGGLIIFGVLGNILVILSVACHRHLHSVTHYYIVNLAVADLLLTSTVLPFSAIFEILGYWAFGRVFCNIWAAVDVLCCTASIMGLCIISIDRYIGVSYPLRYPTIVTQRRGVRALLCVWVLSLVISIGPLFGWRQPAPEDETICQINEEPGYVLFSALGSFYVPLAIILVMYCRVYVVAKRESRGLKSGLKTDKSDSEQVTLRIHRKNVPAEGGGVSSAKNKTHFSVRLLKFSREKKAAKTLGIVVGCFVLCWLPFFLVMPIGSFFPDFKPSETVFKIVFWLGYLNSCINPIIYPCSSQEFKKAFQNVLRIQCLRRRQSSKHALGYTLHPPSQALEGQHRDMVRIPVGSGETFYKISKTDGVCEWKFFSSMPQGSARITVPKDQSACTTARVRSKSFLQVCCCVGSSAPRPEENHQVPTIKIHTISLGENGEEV
Protocol: as §4

[6] = hamster receptor expressed in mouse fibroblasts, [3H]-prazosin, read-out: Radioligand Binding Ki α1b (Hamster)
[7] = iv dose causing a maximum increase in IUP of 5 mm Hg, anesthetized female Beagle dogs
[8] = rat receptor expressed in mouse fibroblasts, [3H]-prazosin, read-out: Radioligand Binding Ki α1d (Rat)

| Compound | Mean MAP ED20 [1] [nmol/kg] | melting point [°C] | Ki [2, 6] [µM] | ED (5 mm Hg) [3, 7] [µmol/kg] | other results |
| --- | --- | --- | --- | --- | --- |
| CC(=O)Nc1cccc2c1CCCC2c1c[nH]cn1.O=C(O)/C=C\C(=O)O (stereo not shown) [Example 16, N-[5,6,7,8-tetrahydro-5-(1H-imidazol-4-yl)-1-naphthalenyl]acetamide, Maleate] | 220 | 159 to 160 | – | – | – |
| CN(c1cccc2c1CCCC2c1c[nH]cn1)S(C)(=O)=O.O=C(O)/C=C\C(=O)O (stereo not shown) [Example 15, N-[5-(1H-imidazol-4-yl)-5,6,7,8-tetrahydro-1-naphthalenyl]-N-methylmethanesulfonamide, Maleate] | 225 | – | 10 | 0.0919 | – |
| COc1ccc(NS(C)(=O)=O)c2c1C(c1c[nH]cn1)CCC2 (stereo not shown) [Example 26, N-[5,6,7,8-tetrahydro-(1H-imidazol-4-yl)-4-methoxy-1-naphthalenyl]methanesulfonamide, Maleate] | – | – | 10 | – | Ki [4, 8]: 10 µM; Mean IUP ED5 [3, 7]: 653 nmol/kg |
| CS(=O)(=O)Nc1cccc2c1OCCC2c1c[nH]cn1.O=C(O)/C=C\C(=O)O (single isomer, unassigned; (+)) [Example 93, (+) N-[4-(1H-imidazol-4-yl)-3,4-dihydro-2H-chromen-8-yl]methanesulfonamide Maleate] | – | 205 to 208 | – | 0.038 | – |
| CCS(=O)(=O)Nc1cc(F)cc2c1OCCC2c1c[nH]cn1.O=C(O)/C=C\C(=O)O (stereo not shown) [Example 80, N-[6-fluoro-4-(1H-imidazol-4-yl)-3,4-dihydro-2H-chromen-8-yl]ethanesulfonamide, Maleate] | 125.78 | – | 10 | 0.113 | Ki [5]: 0.378 µM; Ki [4, 8]: 1.59 µM; Mean Selectivity Ratio MAP ED20/IUP ED5 [3]: 1.12 |
| Cl.Cn1cnc(C2CCCc3c(NS(C)(=O)=O)cccc32)c1 (stereo not shown) [Example 14, N-[5,6,7,8-tetrahydro-5-(1-methyl-1H-imidazol-4-yl)-1-naphthalenyl]methanesulfonamide, Hydrochloride] | >1000 | 130 to 135 | – | – | – |
| CS(=O)(=O)Nc1ccc(F)c2c1CCCC2c1c[nH]cn1.O=C(O)/C=C\C(=O)O (stereo not shown) [Example 44, N-[4-fluoro-5-(1H-imidazol-4-yl)-5,6,7,8-tetrahydro-1-naphthalenyl]methanesulfonamide, Maleate] | 588 | 182 to 186 | 10 | 0.892 | – |
| CCS(=O)(=O)Nc1cc(Cl)cc2c1CCCC2c1c[nH]cn1 (stereo not shown) [Example 132, N-[3-chloro-5-(1H-imidazol-4-yl)-5,6,7,8-tetrahydro-1-naphthalenyl]ethanesulfonamide] | 47.7 | – | – | 0.019 | Ki [5]: 0.047 µM; Ki [2]: 10 µM; Ki [4]: 0.367 µM; Mean Selectivity Ratio MAP ED20/IUP ED5 [3]: 2.5 |
| O=C(Nc1cccc2c1CCCC2c1c[nH]cn1)C(F)(F)F.O=C(O)/C=C\C(=O)O (stereo not shown) [Example 17, 2,2,2-trifluoro-N-[5-(1H-imidazol-4-yl)-5,6,7,8-tetrahydro-1-naphthalenyl]acetamide, maleate] | 216 | – | 10 | 0.188 | – |
| C=C(c1cccc(NS(=O)(=O)CC)c1)c1c[nH]cn1.O=C(O)/C=C\C(=O)O [Example 45, N-{3-[1-(1H-imidazol-4-yl)vinyl]phenyl}ethanesulfonamide, Maleate] | 633 | – | – | 0.273 | – |
| CCS(=O)(=O)Nc1cccc2c1CCCC2c1c[nH]cn1.O=C(O)/C=C\C(=O)O (single isomer, unassigned; (+)) [Example 33, (+)-N-[5-(1H-imidazol-4-yl)-5,6,7,8-tetrahydro-1-naphthalenyl]ethanesulfonamide, Maleate] | – | – | – | – | Mean MAP ED20 ([1]; Maleate): 34.0 nmol/kg |
| CCS(=O)(=O)Nc1cccc2c1CCC2c1c[nH]cn1.O=C(O)/C=C\C(=O)O (stereo not shown) [Example 39, N-[1-(1H-imidazol-4-yl)-2,3-dihydro-1H-inden-4-yl]ethanesulfonamide, Maleate] | 5.6 | 148 to 149 | – | – | – |
| CCS(=O)(=O)Nc1cccc2c1CCCC2c1c[nH]c(C)n1.O=C(O)/C=C\C(=O)O (stereo not shown) [Example 84, N-[5-(2-methyl-1H-imidazol-4-yl)-5,6,7,8-tetrahydro-1-naphthalenyl]ethanesulfonamide, Maleate] | – | 73 to 77 | 10 | – | Ki [5]: 0.792 µM; Ki [4, 8]: 10 µM |
| CS(=O)(=O)Nc1cccc2c1CCC[C@@H]2c1c[nH]cn1 [Example 10, (−)-N-[(5S)-5-(1H-imidazol-4-yl)-5,6,7,8-tetrahydro-1-naphthalenyl]methanesulfonamide] | >1000 | 118 to 123 | – | > 1 | – |
| CCS(=O)(=O)Nc1cccc2c1CCCC2c1c[nH]cn1.O=C(O)/C=C\C(=O)O (single isomer, unassigned; (-)) [Example 34, (−)-N-[5-(1H-imidazol-4-yl)-5,6,7,8-tetrahydro-1-naphthalenyl]ethanesulfonamide, Maleate] | – | 129 to 130 | – | – | Ki ([2]; hamster receptor expressed in mouse fibroblasts, [3H]-prazosin, Maleate, read-out: Radioligand Binding Ki α1b (Hamster)): 10 µM; Mean MAP ED20 ([1]; Maleate): >1000 nmol/kg |
